{"source": "patent US20120015961A1", "about": "“ISOTHIOUREA DERIVATIVES OR ISOUREA DERIVATIVES HAVING BACE1 INHIBITORY ACTIVITY” (SHIONOGI & CO., LTD., priority 2009, published 2012)", "key": {"[1]": {"target": "T1, CYP2C9 (Homo sapiens, UniProt P11712)", "T1 construct": "Enzyme, pooled human hepatic microsome 0.2 mg protein/mL; from tissue; host or cells: pooled human hepatic microsomes", "T1 sequence (P11712 whole entry)": "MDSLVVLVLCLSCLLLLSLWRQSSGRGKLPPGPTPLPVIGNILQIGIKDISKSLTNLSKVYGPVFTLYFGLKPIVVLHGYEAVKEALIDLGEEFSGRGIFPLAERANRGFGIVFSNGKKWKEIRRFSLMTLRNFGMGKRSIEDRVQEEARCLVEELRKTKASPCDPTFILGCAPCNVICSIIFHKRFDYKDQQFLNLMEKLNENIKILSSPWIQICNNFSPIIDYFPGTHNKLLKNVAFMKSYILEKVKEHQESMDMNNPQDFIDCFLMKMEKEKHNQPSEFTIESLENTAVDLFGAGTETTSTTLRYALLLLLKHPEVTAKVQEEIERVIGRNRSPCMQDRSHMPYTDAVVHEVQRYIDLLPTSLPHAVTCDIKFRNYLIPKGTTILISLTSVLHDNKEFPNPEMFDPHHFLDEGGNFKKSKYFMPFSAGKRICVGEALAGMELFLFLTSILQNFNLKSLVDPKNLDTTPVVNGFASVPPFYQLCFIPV", "test": "CYP inhibition test (CYP2C9)", "assay_type": "in vitro ADME", "details": "pooled human hepatic microsome, tolbutamide methyl-hydroxylation", "procedure": "(§1) Using commercially available pooled human hepatic microsome, and employing, as markers, 7-ethoxyresorufin O-deethylation (CYP1A2), tolbutamide methyl-hydroxylation (CYP2C9), mephenyloin 4′-hydroxylation (CYP2C19), dextromethorphan O-demethylation (CYP2D6), and terfenedine hydroxylation as typical substrate metabolism reactions of human main five CYP enzyme forms (CYP1A2, 2C9, 2C19, 2D6, 3A4), an inhibitory degree of each metabolite production amount by a test compound was assessed.\n(§2) The reaction conditions were as follows: […]\n(§3) Each five kinds of substrates, human hepatic microsome, or a test drug in 50 mM Hepes buffer as a reaction solution was added to a 96-well plate at the composition as described above, NADPH, a cofactor, was added to initiate metabolism reactions as markers and, after the incubation at 37° C. for 15 minutes, a methanol/acetonitrile=1/1 (v/v) solution was added to stop the reaction. After the centrifugation at 3000 rpm for 15 minutes, resorufin (CYP1A2 metabolite) in the supernatant was quantified by a fluorescent multilabel counter and tributamide hydroxide (CYP2CP metabolite), mephenyloin 4′ hydroxide (CYP2C19 metabolite), […], and terfenadine alcohol (CYP3A4 metabolite) were quantified by LC/MS/MS. […]"}, "[2]": {"tested_on": "Neuroblastoma SH-SY5Y cells (SH/APPwt) with human wild-type β-APP excessively expressed", "test": "Measurement of β-amyloid (Aβ) production inhibitory effect in cell", "assay_type": "cell-based", "details": "Homo sapiens, SH-SY5Y, 24 h, amount needed to inhibit Aβ production by 50%, 24 hours incubation, Amyloid β1-40 HTRF", "procedure": "Neuroblastoma SH-SY5Y cells (SH/APPwt) with human wild-type β-APP excessively expressed therein were prepared at 8×10^5 cells/mL, and 150 μl portions thereof were inoculated into each well of a 96-well culture plate (Falcon). The cells were cultured for 2 hours at 37° C. in a 5% gaseous carbon dioxide incubator. Then, a solution which had been preliminarily prepared by adding and suspending the test compound (DMSO (dimethyl sulfoxide) solution) so as to be 2 μl/50 μl medium was added to the cell sap. Namely, the final DMSO concentration was 1%, and the amount of the cell culture was 200 μl. After the incubation was performed for 24 hours from the addition of the test compound, 100 μl of the culture supernatant was collected from each fraction. The amount of the Aβ in each fraction was measured.\nThe […] was measured as follows. 10 μl of a homogeneous time resolved fluorescence (HTRF) measurement reagent (Amyloid β1-40 peptide; IBA Molecular Holding, S.A.) and 10 μl of the culture supernatant were put into a 384-well half area microplate (black microplate, Costar) and mixed with each other, and then left standing overnight at 4° C. while the light was shielded. Then, the fluorescence intensity (excitation wavelength: 337 nm, measurement wavelength: 620 nm and 665 nm) was measured with a Wallac 1420 multilabel counter (Perkin Elmer life sciences). The Aβ amount was determined from the count rate at each measurement wavelength (10000×Count 665/Count 620), and the amount needed to inhibit Aβ production by 50% (IC50) was calculated from at least six different dosages."}, "[3]": {"target": "CYP3A4 (Homo sapiens, UniProt P08684)", "sequence (P08684 whole entry)": "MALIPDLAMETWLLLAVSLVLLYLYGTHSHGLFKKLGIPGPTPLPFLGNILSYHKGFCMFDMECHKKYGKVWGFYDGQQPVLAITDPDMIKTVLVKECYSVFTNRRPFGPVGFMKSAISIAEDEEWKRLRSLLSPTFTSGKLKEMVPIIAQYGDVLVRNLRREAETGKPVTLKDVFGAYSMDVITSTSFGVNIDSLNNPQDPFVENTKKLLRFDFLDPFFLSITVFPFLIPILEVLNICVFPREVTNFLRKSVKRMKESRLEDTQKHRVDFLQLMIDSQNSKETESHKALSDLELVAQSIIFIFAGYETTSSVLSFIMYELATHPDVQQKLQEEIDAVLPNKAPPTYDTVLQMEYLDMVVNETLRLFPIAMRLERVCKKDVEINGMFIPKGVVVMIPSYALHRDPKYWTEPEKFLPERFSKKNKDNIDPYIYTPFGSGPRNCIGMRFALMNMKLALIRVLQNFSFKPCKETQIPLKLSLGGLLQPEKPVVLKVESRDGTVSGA", "test": "CYP inhibition test (CYP3A4)", "assay_type": "in vitro ADME", "set-up": "Enzyme, pooled human hepatic microsome 0.2 mg protein/mL; from tissue; host or cells: pooled human hepatic microsomes", "details": "pooled human hepatic microsome, terfenedine hydroxylation", "procedure": "as §1, §2, §3"}, "[4]": {"target": "T2, CYP2D6 (Homo sapiens, UniProt P10635)", "T2 construct": "Enzyme, pooled human hepatic microsome 0.2 mg protein/mL; from tissue; host or cells: pooled human hepatic microsomes", "T2 sequence (P10635 whole entry)": "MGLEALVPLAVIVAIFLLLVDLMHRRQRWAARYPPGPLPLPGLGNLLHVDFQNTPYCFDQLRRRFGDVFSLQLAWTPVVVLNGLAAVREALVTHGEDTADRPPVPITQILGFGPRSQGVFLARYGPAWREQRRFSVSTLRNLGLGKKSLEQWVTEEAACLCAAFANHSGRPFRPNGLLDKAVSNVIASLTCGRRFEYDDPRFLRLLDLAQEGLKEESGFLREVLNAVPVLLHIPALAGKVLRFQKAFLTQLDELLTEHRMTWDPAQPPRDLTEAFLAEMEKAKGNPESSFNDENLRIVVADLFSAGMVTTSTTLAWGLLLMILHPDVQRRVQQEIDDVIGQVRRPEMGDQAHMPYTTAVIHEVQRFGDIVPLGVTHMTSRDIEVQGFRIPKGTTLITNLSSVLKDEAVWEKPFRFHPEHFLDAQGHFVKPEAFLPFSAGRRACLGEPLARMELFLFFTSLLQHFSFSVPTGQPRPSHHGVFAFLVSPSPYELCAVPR", "test": "CYP inhibition test (CYP2D6)", "assay_type": "in vitro ADME", "details": "pooled human hepatic microsome, dextromethorphan O-demethylation", "procedure": "as §1, §2, §3"}, "[5]": {"target": "T3, CYP2C19 (Homo sapiens, UniProt P33261)", "T3 construct": "Enzyme, pooled human hepatic microsome 0.2 mg protein/mL; from tissue; host or cells: pooled human hepatic microsomes", "T3 sequence (P33261 whole entry)": "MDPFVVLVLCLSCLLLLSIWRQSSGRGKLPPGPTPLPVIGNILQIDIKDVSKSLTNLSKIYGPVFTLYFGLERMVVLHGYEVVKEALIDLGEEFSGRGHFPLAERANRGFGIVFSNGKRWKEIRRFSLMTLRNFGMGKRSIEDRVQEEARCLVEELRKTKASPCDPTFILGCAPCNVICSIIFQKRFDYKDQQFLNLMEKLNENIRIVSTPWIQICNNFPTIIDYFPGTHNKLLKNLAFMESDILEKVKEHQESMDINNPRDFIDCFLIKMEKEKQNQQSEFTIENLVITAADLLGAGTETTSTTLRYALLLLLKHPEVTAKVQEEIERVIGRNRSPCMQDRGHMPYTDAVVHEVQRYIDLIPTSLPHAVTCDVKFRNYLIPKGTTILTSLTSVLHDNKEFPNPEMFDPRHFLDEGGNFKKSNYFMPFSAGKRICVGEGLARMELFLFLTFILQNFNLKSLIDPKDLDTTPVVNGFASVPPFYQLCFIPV", "test": "CYP inhibition test (CYP2C19)", "assay_type": "in vitro ADME", "details": "pooled human hepatic microsome, mephenyloin 4′-hydroxylation", "procedure": "as §1, §2, §3"}, "[6]": {"target": "T4, CYP1A2 (Homo sapiens, UniProt P05177)", "T4 construct": "Enzyme, pooled human hepatic microsome 0.2 mg protein/mL; from tissue; host or cells: pooled human hepatic microsomes", "T4 sequence (P05177 1-516)": "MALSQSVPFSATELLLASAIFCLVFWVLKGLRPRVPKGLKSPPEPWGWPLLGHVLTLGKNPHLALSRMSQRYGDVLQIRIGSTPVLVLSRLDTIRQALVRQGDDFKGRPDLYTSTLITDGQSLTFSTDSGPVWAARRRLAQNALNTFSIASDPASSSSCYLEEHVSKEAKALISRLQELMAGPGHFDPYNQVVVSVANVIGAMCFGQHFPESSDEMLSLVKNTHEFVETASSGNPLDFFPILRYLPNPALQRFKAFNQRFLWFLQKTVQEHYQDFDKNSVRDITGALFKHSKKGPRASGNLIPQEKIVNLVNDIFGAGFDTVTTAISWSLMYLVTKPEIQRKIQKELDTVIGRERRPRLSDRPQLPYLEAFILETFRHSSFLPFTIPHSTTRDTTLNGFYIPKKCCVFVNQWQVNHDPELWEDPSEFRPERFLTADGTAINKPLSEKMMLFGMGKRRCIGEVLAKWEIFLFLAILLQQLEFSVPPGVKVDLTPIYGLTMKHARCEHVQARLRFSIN", "test": "CYP inhibition test (CYP1A2)", "assay_type": "in vitro ADME", "details": "pooled human hepatic microsome, 7-ethoxyresorufin O-deethylation", "procedure": "as §1, §2, §3"}, "[7]": {"test": "BA test", "assay_type": "in vivo", "details": "rat, plasma; SD rats, from AUCs of oral and intravenous administration", "procedure": "Materials and methods for studies on oral absorption\n(2) Breeding conditions: rats were allowed to freely take solid feed and sterilized tap water\n(3) Dose and grouping: orally or intravenously administered at a predetermined dose; grouping was as follows (Dose depends on the compound)\nOral administration: 1 to 30 mg/kg (n=2 to 3)\nIntravenous administration: 0.5 to 10 mg/kg (n=2 to 3)\n(4) Preparation of dosing solution: for oral administration, in a solution or a suspension state; for intravenous administration, in a solubilized state\n(5) Administration method: in oral administration, forcedly administer into ventriculus with oral probe; in intravenous administration, administer from caudal vein with a needle-equipped syringe\n(6) Evaluation items: blood was collected over time, and the plasma concentration of drug was measured by LC/MS/MS\n(7) Statistical analysis: regarding the transition of the plasma concentration, the area under the plasma concentration-time curve (AUC) was calculated by non-linear least squares program WinNonlin (Registered trademark), and the bioavailability (BA) was calculated from the AUCs of the oral administration group and intravenous administration group"}, "[8]": {"target": "T5, Recombinant human BACE1 (Homo sapiens, UniProt P56817)", "T5 construct": "purchased R&D Systems", "T5 sequence (P56817 46-501)": "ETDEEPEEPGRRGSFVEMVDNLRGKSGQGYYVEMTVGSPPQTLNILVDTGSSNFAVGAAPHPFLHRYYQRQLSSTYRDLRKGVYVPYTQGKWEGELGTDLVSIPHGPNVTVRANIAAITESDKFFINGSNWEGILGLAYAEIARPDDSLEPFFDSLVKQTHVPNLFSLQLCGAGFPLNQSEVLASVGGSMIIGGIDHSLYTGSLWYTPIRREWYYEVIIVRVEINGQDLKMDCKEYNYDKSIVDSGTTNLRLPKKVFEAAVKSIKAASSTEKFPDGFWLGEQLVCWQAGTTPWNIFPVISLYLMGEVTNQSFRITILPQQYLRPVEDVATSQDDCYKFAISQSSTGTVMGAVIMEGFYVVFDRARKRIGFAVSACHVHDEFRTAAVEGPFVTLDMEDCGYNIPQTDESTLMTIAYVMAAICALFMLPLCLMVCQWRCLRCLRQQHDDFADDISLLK", "test": "Assay of BACE1 inhibiting activity", "assay_type": "biochemical", "details": "50% inhibitory concentration against enzymatic activity, pH 5.0, 30° C., 3 hours", "procedure": "48.5 μL of substrate peptide solution (Biotin-XSEVNLDAEFRHDSGC-Eu: Xεε-amino-n-capronic acid, Eu=Europium cryptate) was added to each well of 96-hole half-area plate (a black plate: Costar Corporation), and after addition of 0.5 μl of the test compound (dissolved in […]) and 1 μl of Recombinant human BACE1 (R&D Systems), the reaction mixture was incubated at 30° C. for 3 hours. The substrate peptide was synthesized by reacting Cryptate TBPCOOH mono SMP (CIS bio international) with Biotin-XSEVNLDAEFRHDSGC (Peptide Institute, Inc.). The final concentrations of the substrate peptide and Recombinant human BACE1 were adjusted to 18 nM and 7.4 nM respectively, and the reaction was performed in sodium acetate buffer (50 mM sodium acetate, pH 5.0, 0.008% Triton X-100). After the completion of reaction, 50 μl of 8.0 μg/ml Streptavidin-XL665 (CIS bio international) dissolved in phosphate buffer (150 mM K2HPO4—KH2PO4, pH 7.0, 0.008% Triton X-100, 0.8 M KF) was added to each well and left stand at 30° C. for an hour. Then, fluorescence intensity was measured (excitation wavelength: 320 nm, measuring wavelength: 620 nm and 665 nm) using Wallac 1420 multilabel counter (Perkin Elmer life sciences). Enzymatic activity was determined from counting ratio of each wavelength (10,000×Count 665/Count 620) and 50% inhibitory concentration against the enzymatic activity was calculated."}, "[9]": {"test": "Metabolic stability test", "assay_type": "in vitro ADME", "details": "human liver microsomes 0.5 mg protein/mL, 1 mmol/L NADPH, 30 minutes at 37° C.", "procedure": "The target compound was reacted with commercially available pooled human liver microsomes for a predetermined time period. The residual rate was calculated by comparing the reacted sample and unreacted sample, and thus the degree of metabolism in liver was evaluated.\nIn 0.2 mL of a buffer (50 mmol/L tris-HCl pH 7.4, 150 mmol/L potassium chloride, 10 mmol/L magnesium chloride) containing human liver microsomes 0.5 mg protein/mL, reaction was carried out in the presence of 1 mmol/L NADPH for 0 minute or 30 minutes at 37° C. (oxidative reaction). After the reaction, 50 μL of the reaction solution was added to and mixed with 100 μL of a solution of methanol/acetonitrile=1/1 (v/v), and the mixture was centrifuged for 15 minutes at 3000 rpm. The test compound in the centrifuged supernatant was quantified by LC/MS/MS, and the residual amount of the test compound after the reaction was calculated based on the compound amount at O-minute reaction set as 100%."}, "[10]": {"test": "Solubility test", "assay_type": "physicochemical", "details": "JP-I medium with 2% DMSO, pH 1.2, simulated gastric fluid, kinetic from dmso stock, turbidity after 4 hours", "procedure": "A 2-fold dilution series (12 points) of a 10 mM solution of a test compound in DMSO was added to a medium (JP-I, JP-II) (2%), and solubility was assessed by 3 stages (High; >40 μM, Medium; 3-40 μM, Low; <3 μM) from a turbidity after 4 hours (crystallization information)."}}, "data": [{"smiles": "N#Cc1ccc(C(=O)Nc2cccc(C/N=C(\\N)OCCCO)c2)nc1", "note": "[Compound 36]", "values": [{"measurement": "IC50", "setting": "[1]", "result": "> 20", "unit": "µM"}, {"measurement": "IC50", "setting": "[2]", "result": "≤ 1", "unit": "µM"}, {"measurement": "IC50", "setting": "[3]", "result": "> 20", "unit": "µM"}, {"measurement": "IC50", "setting": "[4]", "result": "> 20", "unit": "µM"}, {"measurement": "IC50", "setting": "[5]", "result": "> 20", "unit": "µM"}, {"measurement": "IC50", "setting": "[6]", "result": "> 20", "unit": "µM"}]}, {"smiles": "CO/C(N)=N\\C1(c2cccc(NC(=O)c3cnc(C)cn3)c2)CC1", "note": "[Compound 41]", "values": [{"measurement": "IC50", "setting": "[1]", "result": "> 20", "unit": "µM"}, {"measurement": "IC50", "setting": "[2]", "result": "≤ 1", "unit": "µM"}, {"measurement": "IC50", "setting": "[3]", "result": "> 20", "unit": "µM"}, {"measurement": "IC50", "setting": "[4]", "result": "> 20", "unit": "µM"}, {"measurement": "IC50", "setting": "[5]", "result": "> 20", "unit": "µM"}, {"measurement": "IC50", "setting": "[6]", "result": "> 20", "unit": "µM"}]}, {"smiles": "CO/C(N)=N/C(c1ccccc1)c1cccc(NC(=O)c2ccc(C#N)cn2)c1", "note": "(centres unmarked) [Compound 48]", "values": [{"measurement": "bioavailability", "setting": "[7]", "result": 87.2, "unit": "%"}, {"measurement": "IC50", "setting": "[8]", "result": "≤ 1", "unit": "µM"}, {"measurement": "IC50", "setting": "[2]", "result": "≤ 1", "unit": "µM"}]}, {"smiles": "CO/C(N)=N/C(c1ccc(F)cc1)c1cccc(NC(=O)c2ccc(C#N)cn2)c1", "note": "(centres unmarked) [Compound 50]", "values": [{"measurement": "IC50", "setting": "[8]", "result": 0.188, "unit": "µM"}, {"measurement": "IC50", "setting": "[2]", "result": "≤ 1", "unit": "µM"}, {"measurement": "residual amount of the test compound after the reaction", "setting": "[9]", "result": 100, "unit": "%"}]}, {"smiles": "CO/C(N)=N\\c1cccc2ncc(NC(=O)c3ccc(C#N)cn3)cc12", "note": "[Compound 76]", "values": [{"measurement": "solubility at 4 h", "setting": "[10]", "result": "> 40", "unit": "µM"}, {"measurement": "residual amount of the test compound after the reaction", "setting": "[9]", "result": 98.9, "unit": "%"}]}, {"smiles": "CO/C(N)=N\\c1c(C)ccc2ccc(NC(=O)c3ccc(C#N)cn3)cc12", "note": "[Compound 77]", "values": [{"measurement": "bioavailability", "setting": "[7]", "result": 75, "unit": "%"}, {"measurement": "IC50", "setting": "[8]", "result": "≤ 1", "unit": "µM"}, {"measurement": "IC50", "setting": "[2]", "result": "≤ 1", "unit": "µM"}]}]}
